For test [1], the target named is T1, human M4 muscarinic receptor (Homo sapiens, UniProt P08173).
T1 construct: purchased PerkinElmer Life and Analytical Sciences, Boston, MA
T1 sequence (P08173 1-479): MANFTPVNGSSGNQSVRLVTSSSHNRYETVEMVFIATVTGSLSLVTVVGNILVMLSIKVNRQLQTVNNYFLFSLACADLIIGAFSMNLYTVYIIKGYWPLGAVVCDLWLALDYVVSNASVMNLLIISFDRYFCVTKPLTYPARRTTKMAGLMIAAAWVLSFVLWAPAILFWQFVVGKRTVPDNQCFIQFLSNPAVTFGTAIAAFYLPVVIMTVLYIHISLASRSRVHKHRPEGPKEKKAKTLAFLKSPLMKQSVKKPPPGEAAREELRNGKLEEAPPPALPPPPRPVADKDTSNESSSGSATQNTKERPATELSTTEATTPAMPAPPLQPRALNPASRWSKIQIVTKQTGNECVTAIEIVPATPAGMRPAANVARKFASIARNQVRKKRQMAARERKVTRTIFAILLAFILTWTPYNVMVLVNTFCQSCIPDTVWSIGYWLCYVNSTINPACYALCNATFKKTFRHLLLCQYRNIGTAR
The test is described as follows: GTP-γ-[35S] binding, antibody capture SPA (agonist and antagonist mode). Type of test: biochemical. As to the method:
(§1) The antibody capture scintillation proximity technique previously described by DeLapp et al was used in a 96-well plate to determine GTP-γ-[35S] binding. One hundred μl (20–40 fmol/well) of membrane preparation from CHO cells that stably express the human M1-M5 muscarinic receptors (PerkinElmer Life and Analytical Sciences, Boston, MA) were incubated with varying concentration of test compound (final concentrations from 50pM to 1μM) for 30 min. One μM final concentration of GDP was added to M2 and M4 receptor membranes before incubation. […] (500 pM final concentration; Perkin Elmer Life and Analytical Sciences) was added to each well followed by 30 min of incubation. […] An anti-Gαq/11 antibody was used for the M1-, M3-, and M5 membranes, whereas an anti-Gαi-3 antibody was used for the M2- and M4 membranes (Eli Lilly and Company, Indianapolis, IN). […] By use of a Wallac MicroBeta TriLux scintillation counter (PerkinElmer), the plates were centrifuged for 10 min at 700 × g and counted for 1 min per well. The incubations took place at room temperature in GTP-binding assay buffer (20 mM Hepes, 100 mm NaCl, 5 mM MgC12, pH 7.4). The data were analyzed by use of nonlinear regression for a sigmoidal concentration response curve (GraphPad Prism v. 4.0). Data were normalized to a full agonist response (100 μM oxotremorine-M). […] The antagonist percent inhibition data were normalized to data generated with an EC90 concentration of acetylcholine. The mean relative EC50, IC50, and %Emax, and pKi values were calculated as a mean of at least three independent experiments±SEM. In order to obtain relevant comparisons between subtypes, the experimental system is routinely calibrated with reference agonists (oxotremorine-M, pilocarpine, MCN-A343) to measure full and partial agonism as well as to ensure that the system is not under- or over-reporting functional efficacies. The radioligand binding assays have earlier been described.

Test [2] deals with T2, human M1 muscarinic receptor (Homo sapiens, UniProt P11229).
T2 construct: purchased PerkinElmer Life and Analytical Sciences, Boston, MA
T2 sequence (P11229 1-460): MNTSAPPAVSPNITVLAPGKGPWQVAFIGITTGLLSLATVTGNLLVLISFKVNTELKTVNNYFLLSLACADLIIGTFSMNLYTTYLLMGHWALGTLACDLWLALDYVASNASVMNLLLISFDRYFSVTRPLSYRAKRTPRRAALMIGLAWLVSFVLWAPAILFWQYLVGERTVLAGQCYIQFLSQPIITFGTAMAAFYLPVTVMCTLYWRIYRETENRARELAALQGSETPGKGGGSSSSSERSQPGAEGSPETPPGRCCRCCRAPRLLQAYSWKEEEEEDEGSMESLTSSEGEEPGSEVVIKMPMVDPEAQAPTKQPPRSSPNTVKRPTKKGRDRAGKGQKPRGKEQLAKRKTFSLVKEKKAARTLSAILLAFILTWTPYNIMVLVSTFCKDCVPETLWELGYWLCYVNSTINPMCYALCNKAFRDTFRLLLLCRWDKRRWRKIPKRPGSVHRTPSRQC
The description is as above. Format: biochemical. As to the method: as §1

Another test concerns the target T3, M4AChR (Homo sapiens, UniProt P08173).
T3 sequence (P08173 1-479): T1 sequence (P08173 1-479)
The test is described as follows: Competitive radioligand binding.

Test [3] deals with T4, human M2 muscarinic receptor (Homo sapiens, UniProt P08172).
T4 construct: purchased PerkinElmer Life and Analytical Sciences, Boston, MA
T4 sequence (P08172 1-466): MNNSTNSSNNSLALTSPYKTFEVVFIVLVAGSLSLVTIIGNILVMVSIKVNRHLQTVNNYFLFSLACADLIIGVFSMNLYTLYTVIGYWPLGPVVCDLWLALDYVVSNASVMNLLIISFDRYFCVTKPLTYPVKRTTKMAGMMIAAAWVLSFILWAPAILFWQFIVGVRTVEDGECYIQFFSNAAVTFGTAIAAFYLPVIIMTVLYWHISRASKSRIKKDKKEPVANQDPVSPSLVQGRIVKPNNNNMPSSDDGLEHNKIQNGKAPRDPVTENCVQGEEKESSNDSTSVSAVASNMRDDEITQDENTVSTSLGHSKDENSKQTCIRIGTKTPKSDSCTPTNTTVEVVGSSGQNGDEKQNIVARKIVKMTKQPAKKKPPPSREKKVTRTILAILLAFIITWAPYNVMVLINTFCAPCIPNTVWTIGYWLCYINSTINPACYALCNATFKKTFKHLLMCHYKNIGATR
On the set-up: method as in Watt et al. 2013 [10]. The settings on record: agonist mode, ref Watt et al. 2013 [10], cited from earlier work.

Setting [4] is: antagonist mode, maximal inhibition of EC90 agonist response.

As usually defined, the EC50 is the concentration giving half of the maximal effect. High values mean a need for much substance, low ones an effect from little substance. For orientation: Emax means the greatest response seen or fitted, relative to the assay's reference. A word on the IC50: it is the concentration that inhibits the measured activity by half. The low end stands for greater potency in that assay, the high end for weaker potency in that assay. By % Inhibition is commonly meant how much of the control response was suppressed. Read a high % Inhibition as a response far below the control. For orientation: Ki means the dissociation constant of the complex between target and ligand, obtained from inhibition or displacement. Read a high Ki as a looser hold on the target.

In the case of `CCCSc1nsnc1[C@H]1CN2CCC[C@H]1C2` [PTAC, (5R,6R) 6-(3-propylthio-1,2,5-thiadiazol-4-yl)-1-azabicyclo-[3.2.1]-octane], the EC50 in test [1] was 1.48 nM; in test [2] it was 0.372 nM. Also, the Emax in test [1] worked out at 19.4 ± 0.52%; in test [2] (percentage of maximum 100 μM oxotremorine-M signal), 38.1 ± 9.94%. Besides, the IC50 is 24.5 nM in test [1] and 0.933 nM in test [2]. The “% Inhibition” value in test [1] (setting [4]) turned out to be 92.7 ± 7.49%; in test [2] (setting [4]), 54.3 ± 1.70%. This molecule also showed an inhibitory constant (Ki) at M4AChR of 0.282 nM.

Take `CCCCSc1nsnc1[C@H]1CN2CCC[C@H]1C2` [BuTAC, (5R,6R)-6-(3-butylthio-1,2,5-thiadiazol-4-yl)-1-azabicyclo[3.2.1]octane]: the “Rel pEC50” value in test [3] (negative log-transformed) is on record as 9.56 ±10.26 M. In test [3], the “% Emax” value is on record as 136.53 ± 17.20%.

The values above are taken from publication PMC4399838, “Antipsychotic-Like Effect of the Muscarinic Acetylcholine Receptor Agonist BuTAC in Non-Human Primates” (PLoS ONE, 2015).
